Here are results for nine molecules from patent publication US8183342B2, “Method of treating chemotherapy-induced thrombocytopenia” (Case Western Reserve University, priority 2007, dated 2012).

“Also recorded” adds a separate entry of the source. Where a SMILES comes first, the peptide text is derived from it. Where no end group is shown, it is not given here. The star is where a group is joined. Cbz = O=C(OCc1ccccc1)*; CH2F = FC*

Data set [1] relates to platelet number in mouse peripheral blood. The data set is described as follows: Platelet number in mouse peripheral blood after Etoposide. In kind it is in vivo, C57BL/6J mice. As to conditions: Etoposide 150 mg/kg i.p., for 48 hrs. As for the experimental part: Percentage of platelets in C57BL/6J mice compared to before treatment (100%). […] The statistical significance was determine by an unpaired student t test, *P<0.05, **P<0.01, ***, P<0.001.
Mouse blood (50-100 micro 1) was collected by heparin-coated capillary tube from tail, and the samples were incubated at room temperature for 1 hr before blood cell analysis using HEMA VET blood cell counter (Drew Scientific Inc. Oxford, Conn.). Each blood sample was measured twice, and the mean value of two measurements was used as one sample data (n=1).

Another data set deals with cell membrane. Kind of data set: Cell membrane permeability and retention of peptides in cells (description). In kind it is cell-based. As to conditions: for cell membrane permeability: need of a cell delivery system.
The test system of data set [2] is primary cultured mouse megakaryocytes. Kind of data set: Platelet formation in vitro (Integrin αIIB positive platelet like particles, flow cytometry). The class given is cell-based. As to conditions: 48 h; VPTLK 200 μM; Z-VAD-fmk 200 and 400 μM; FIG. 5B. As for the experimental part:
After the pre-incubation with the peptides, 1 mM EDTA and 50 ng/ml prostaglandin E1 (Sigma) dissolved in ethanol were added to the cell culture before the centrifugation (700 g) at room temperature (RT) for 10 min. The platelets were washed with 300 μl of tyrodes buffer (pH 7.4) containing 2.5 mg/ml BSA and 1 mg/ml glucose. Then 2 μl of anti CD16/anti CD32 (BD Phaminogen™) was added to the platelets. The platelets were incubated at RT for 10 min. The platelets were divided into 3 sets, and 2 μl of rat IgG1 κ phycoerythrin (PE) labeled isotype control (Pharmingen) was added to one sample, and 2 μl of PE labeled antibody of intregin αIIB PE (Santa Cruz) was added to the other two samples. The platelets were incubated at RT for 30 min. Finally, 5 μl of Flow-Count™ Fluorospheres (Beackman-Coulter™) was added to the sample as platelet size marker. The platelets were detected with a FACScan flow cytometer system (Becton Dickinson; BD LSRII) using cellquest software. Each point in the figures showing percent apoptosis represents the mean±SEM of three experiments.

The target in data set [3] is T1, interaction of Ku70 and Bax (Homo sapiens, UniProt Q07812).
T1 construct: lysates prepared from human cultured cells (HeLa cells and human kidney epithelial 293 cells); endogenous in cells; host or cells: HeLa cells; human kidney epithelial 293 cells
T1 sequence (Q07812 whole entry): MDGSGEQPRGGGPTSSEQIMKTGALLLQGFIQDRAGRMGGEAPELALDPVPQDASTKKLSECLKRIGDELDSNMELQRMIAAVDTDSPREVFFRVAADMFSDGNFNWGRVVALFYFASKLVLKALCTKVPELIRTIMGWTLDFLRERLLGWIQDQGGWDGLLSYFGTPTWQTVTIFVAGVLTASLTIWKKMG
Kind of data set: Inhibition of the interaction of Ku70 and Bax in cell lysates. As to conditions: negative controls; lysates from human cultured cells. In kind it is binding. As for the experimental part: The Bax-binding domain in Ku70 comprises 6 amino acids (VPMLKE, SEQ ID NO: 1). This peptide (Ku70 Peptide) inhibits the interaction of Ku70 and Bax at the concentration of 20-80 μM in lysates prepared from human cultured cells (HeLa cells and human kidney epithelial 293 cells).

A short description of data set [4]: Preliminary toxicity study in mice. In kind it is in vivo. The note with it: 166.5 mg/kg i.p. and 16.5 mg/kg i.v.t. As for the experimental part:
Importantly, we also obtained a preliminary result showing that BIP pre-treatment attenuated Etoposide-induced platelet decrease in mouse model. To develop the technology protecting megakaryocytes from chemotherapy, further extensive animal studies are needed. […] We examined doses of 166.5 mg/kg by i.p. and 16.5 mg/kg by i.v.t. […] The dose of 166.5 mg/kg is expected to achieve 300 μM of BIP in whole mouse body, if a mouse body is assumed to be filled with water. Probably, much less amount of BIP is sufficient to achieve effective doses (50-400 μM) (Sawada, M., P. Hayes, and S. Matsuyama, Cytoprotective membrane-permeable peptides designed from the Bax-binding domain of Ku70. Nat Cell Biol, 2003. 5(4): p. 352-7; Yoshida, T., et al., Bax-inhibiting peptide derived from mouse and rat Ku70. Biochem Biophys Res Commun, 2004. 321(4): p. 961-6; Yu, L. Y., et al., GDNF-deprived sympathetic neurons die via a novel nonmitochondrial pathway. J Cell Biol, 2003. 163(5): p. 987-97; Qin, Q., K. Patil, and S. C. Sharma, The role of Bax-inhibiting peptide in retinal ganglion cell apoptosis after optic nerve transection. Neurosci Lett, 2004. 372(1-2): p. 17-21) in blood or a specific tissue.

Regarding `COc1cc([C@@H]2c3cc4c(cc3[C@@H](O[C@@H]3O[C@@H]5CO[C@@H](C)O[C@H]5[C@H](O)[C@H]3O)[C@H]3COC(=O)[C@H]23)OCO4)cc(OC)c1O` [Etoposide], in data set [1], the “platelet count in the peripheral blood after Etoposide alone” value is “slight decrease of platelet count”.
In the case of `CSCC[C@H](NC(=O)[C@@H]1CCCN1)C(=O)N[C@@H](CC(C)C)C(=O)N[C@@H](CCCCN)C(=O)O` [PMLK] (H-PMLK-OH; N-terminus and C-terminus assumed), in the data set with cell membrane, the “retention in the cell” value is “not retained in the cell” and the cell membrane permeability entry was “cell membrane permeable”.
In the case of `COC(=O)CC(NC(=O)C(C)NC(=O)C(NC(=O)OCc1ccccc1)C(C)C)C(=O)CF` (stereo not drawn) [Z-VAD-fmk, Benzyloxycarbonyl-Val-Ala-Asp (OMe) fluoromethylketone] (Cbz-Val-Ala-Asp(OMe)-CH2F; configuration not given here), the “platelet like particles formation” value in data set [2] is “slightly decreased platelet like particles formation”.
For “Ku70 Peptide NC: the immediate next six amino acid sequence of Ku70, negative control (LGKFTV; UniProt P12956 573-578, looked up, fragment)”, the “effect on the interaction of Ku70 and Bax” value in data set [3] was “did not affect the interaction of Ku70 and Bax”.
Turning to PMLKE [PMLKE], the cell membrane permeability entry in the data set with cell membrane is listed as “cell membrane permeable”.
Still for that read-out and setting: the same measure for VPALR [VPALR]: “cell membrane permeable”; for VPMLK [VPMLK]: “cell membrane permeable”; for VPMLKE [VPMLKE]: “a cell delivery system, such as liposomes as in the case of VPMLKE”.
For the molecule VPTLK [VPTLK], the “survival after the injection” value in data set [4] is on record as “more than 3 months”. The toxicity in mice result in data set [4] (preliminary study, listed as BIP) is “did not show any toxicity; also recorded: did not show any sign of illness”.
